Values after ≈ are worked out from the molar mass of the structure shown. Where a name gives a salt, the structure may show the parent alone.
Tested on: human platelets
Assay: In vitro inhibition of ADP-induced human platelet aggregation in platelet-rich plasma (aggregometer method of Born)
Assay type: cell-based
Settings: human PRP, 0.5 mcg/mL ADP, about three minutes preincubation
Method: The aggregometer method of Born, G. V. R., J. Physiol., (London), 162, 67-68, (1962) as modified by Mustard, J. F., et al., J. Lab. Clin. Med., 64, 548-599, (1964) Was used to assess the in vitro activity of the various compounds as to the inhibition of adenosine diphosphate (ADP) and collagen-induced platelet aggregation. The human volunteer donor's arm is cleansed with 70% ethyl alcohol. A sterile 20 ml syringe and needle are used to withdraw 20 ml of blood. The blood is immediately added to a test tube containing 3.8% sodium citrate to prevent clotting (1 part citrate to 9 parts blood).
Platelet rich plasma (PRP) was separated by centrifugation for 10 minutes at 1000 rpm (140×g) from citrated (3.8%) human blood. All glassware used for preparation of PRP is silicon treated. ADP in final concentration of 0.5 mcg/mL or 0.05 mL of a collagen suspension prepared according to the method described by Evans, G., et al., J. Exp. Med., 128, 877-894, (1968) was used to induce aggregation. The various compounds tested were dissolved in dimethylsulfoxide (DMSO) so that 5 mcl added to the platelet rich plasma would yield the desired test concentration. Vehicle control trials were done and compared with aggregation induced in platelet rich plasma containing various concentrations of the test compounds. Dose response curves were obtained and Inhibitor Concentration (IC50) values calculated.
The compounds listed in Table 1 were evaluated as inhibitors of human platelet aggregation in vitro in platelet-rich-plasma (PRP) using […] ADP as the inducing agent. The PRP was incubated with drug for about three minutes prior to the addition of the agonist. The extent of aggregation in the presence of various concentrations of test compounds was compared with that in vehicle controls. Dose-response curves were obtained and IC50 values determined.

With `CCOC(=O)C(=Cc1cccc(OCC(=O)OC(C)(C)C)c1)c1nc(-c2ccccc2)c(-c2ccccc2)o1` [Compound 7a, (E) and (Z)-Ethyl α-[[3-[[(1,1-dimethylethoxy)carbonyl]methoxyl]phenyl]methylene]-4,5-diphenyl-2-oxazoleacetate] as the compound, how does the IC50 read?
Its IC50 is > 32 µg/mL.

`CCOC(=O)/C(=C\c1cccc(OCC(=O)OC)c1)c1nc(-c2ccccc2)c(-c2ccccc2)o1` [Compound 7b, (Z)-Ethyl-α-[[3-(2-methoxy-2-oxoethoxy)phenyl]methylene]-4,5-diphenyl-2-oxazole acetate] was tested. Which IC50 did it give?
The IC50 was 10 µg/mL.

`CCOC(=O)/C(=C/c1cccc(OCC(=O)OC)c1)c1nc(-c2ccccc2)c(-c2ccccc2)o1` [Compound 7c, (E)-Ethyl α-[[3-(2-methoxy-2-oxoethoxy)phenyl]methylene]-4,5-diphenyl-2-oxazole acetate] was tested. Which IC50 did it give?
The IC50 was 1 µg/mL.

For `COC(=O)COc1cccc(C=C(C(=O)OC)c2nc(-c3ccccc3)c(-c3ccccc3)o2)c1` [Compound 7d, Methyl (E) and (Z) α-[[3-(2-methoxy-2-oxoethoxy)phenyl]methylene]-4,5-diphenyl-2-oxazoleacetate], which IC50 is on record?
Its IC50 is 0.5 µg/mL (≈ 1.06 µM).

For `CC(C)OC(=O)C(=Cc1cccc(OCC(=O)OC(C)(C)C)c1)c1nc(-c2ccccc2)c(-c2ccccc2)o1` [Compound 7e, (E) and (Z)-1-methylethyl α-[[3-[2-(1,1,-dimethylethoxy)-2-oxoethoxy]phenyl]-methylene]-4,5-diphenyl-2-oxazoleacetate], which IC50 is on record?
The IC50 was > 32 µg/mL.

With `COC(=O)COc1cccc(C=C(C(=O)OC(C)C)c2nc(-c3ccccc3)c(-c3ccccc3)o2)c1` [Compound 7f, (E) and (Z) 1-Methylethyl α-[[3-[2-(methoxy-2-oxoethoxy)phenyl]methylene]-4,5-diphenyl-2-oxazoleacetate] as the compound, how does the IC50 read?
Its IC50 is 5 µg/mL (≈ 10 µM).

With `COC(=O)COc1cccc(C=C(C(N)=O)c2nc(-c3ccccc3)c(-c3ccccc3)o2)c1` [Compound 7g, (E) and (Z) Methyl [3-[3-amino-2-(4,5-diphenyl)-2-oxazolyl]-3-oxo-1-propenyl]phenoxy]acetate] as the compound, how does the IC50 read?
Its IC50 is 2.5 µg/mL (≈ 5.5 µM).

Which IC50 does the source give for `CNC(=O)C(=Cc1cccc(OCC(=O)OC)c1)c1nc(-c2ccccc2)c(-c2ccccc2)o1` [Compound 7h, (E) and (Z) Methyl [3-[2-(4,5-diphenyl-2-oxazolyl)-3-methylamino-3-oxo-propenyl]phenoxy]acetate] here?
The IC50 was 1.3 µg/mL (≈ 2.77 µM).

With `COC(=O)COc1cccc(/C=C(\C(=O)N(C)C)c2nc(-c3ccccc3)c(-c3ccccc3)o2)c1` [Compound 7i, (Z)-Methyl [3-[3-(dimethylamino)-2-(4,5-diphenyl-2-oxazolyl)-3-oxo-1-propenyl]phenoxy]acetate] as the compound, how does the IC50 read?
Its IC50 is > 32 µg/mL.

With `CCOC(=O)C(=Cc1cccc(OCC(=O)O)c1)c1nc(-c2ccccc2)c(-c2ccccc2)o1` [Compound 8a, (E) and (Z) Ethyl α-[[3-carboxymethoxy)phenyl]methylene]-4,5-diphenyl-2-oxazole acetate] as the compound, how does the IC50 read?
Its IC50 is 0.17 µg/mL.

For `O=C(O)COc1cccc(C=C(C(=O)O)c2nc(-c3ccccc3)c(-c3ccccc3)o2)c1` [Compound 8b], which IC50 is on record?
The IC50 was 9 µg/mL (≈ 20.4 µM).

Which IC50 does the source give for `CNC(=O)C(=Cc1cccc(OCC(=O)O)c1)c1nc(-c2ccccc2)c(-c2ccccc2)o1` [Compound 8d, (E) and (Z) [3-[2-(4,5-Diphenyl-2-oxazolyl)-3-(methylamino)-3-oxo-propenyl]phenoxy]acetic acid] here?
The IC50 was 7 µg/mL (≈ 15.4 µM).

`CN(C)C(=O)/C(=C\c1cccc(OCC(=O)O)c1)c1nc(-c2ccccc2)c(-c2ccccc2)o1` [Compound 8e, (Z)-[3-[3-(Dimethylamino)-2-(4,5-diphenyl-2-oxazolyl)-3-oxo-1-propenyl]phenoxy]acetic acid] was tested. Which IC50 did it give?
The IC50 was 5.8 µg/mL (≈ 12.4 µM).

For `CCOC(=O)C(Cc1cccc(OCC(=O)OC(C)(C)C)c1)c1nc(-c2ccccc2)c(-c2ccccc2)o1` (stereo not shown) [Compound 9a], which IC50 is on record?
The IC50 was > 32 µg/mL.

How did the IC50 turn out when `CCOC(=O)C(Cc1cccc(OCC(=O)OC)c1)c1nc(-c2ccccc2)c(-c2ccccc2)o1` (stereo not drawn) [Compound 9b, Ethyl α-[(3-[(methoxycarbonyl)methoxyl]phenyl]-methyl]-4,5-diphenyl-2-oxazole acetate] was run?
Its IC50 is 0.75 µg/mL.

For `COC(=O)C(Cc1cccc(OCC(=O)OC(C)(C)C)c1)c1nc(-c2ccccc2)c(-c2ccccc2)o1` (stereo not drawn) [Compound 9c, Methyl α-[[3-(2-(1,1-dimethylethoxy-2-oxoethoxy)phenyl]methyl]-4,5-diphenyl-2-oxazole acetate], which IC50 is on record?
Its IC50 is > 32 µg/mL.

With `COC(=O)COc1cccc(CC(C(=O)OC)c2nc(-c3ccccc3)c(-c3ccccc3)o2)c1` (stereo not drawn) [Compound 9d, Methyl α-[[3-(2-methoxy-2-oxoethoxy)phenyl]methyl]-4,5-diphenyl-2-oxazole acetate] as the compound, how does the IC50 read?
Its IC50 is 0.6 µg/mL.

Which IC50 does the source give for `CC(C)OC(=O)C(Cc1cccc(OCC(=O)OC(C)(C)C)c1)c1nc(-c2ccccc2)c(-c2ccccc2)o1` (stereo not drawn) [Compound 9e, 1-Methylethyl α-[[3-[2-(1,1-dimethylethoxy)-2-oxoethoxy)phenyl]methyl]-4,5-diphenyl-2-oxazoleacetate] here?
The IC50 was > 32 µg/mL.

For `COC(=O)COc1cccc(CC(C(=O)OC(C)C)c2nc(-c3ccccc3)c(-c3ccccc3)o2)c1` (stereo not shown) [Compound 9f], which IC50 is on record?
The IC50 was 3.5 µg/mL (≈ 7.01 µM).

With `CC(C)(C)OC(=O)COc1cccc(CC(C(N)=O)c2nc(-c3ccccc3)c(-c3ccccc3)o2)c1` (stereo not shown) [Compound 9g, (t-Butyl [3-3-amino-2-(4,5-diphenyl-2-oxazolyl)-3-oxopropyl]phenoxy acetate] as the compound, how does the IC50 read?
Its IC50 is > 32 µg/mL.

Which IC50 does the source give for `COC(=O)COc1cccc(CC(C(N)=O)c2nc(-c3ccccc3)c(-c3ccccc3)o2)c1` (stereo not drawn) [Compound 9h, Methyl[3-[α-Amino-2-(4,5-diphenyl-2-oxazolyl)-3-oxopropyl]phenoxy]acetic acid] here?
The IC50 was > 32 µg/mL.

`CNC(=O)C(Cc1cccc(OCC(=O)OC)c1)c1nc(-c2ccccc2)c(-c2ccccc2)o1` (stereo not shown) [Compound 9i, Methyl[3-[2-(4,5-diphenyl-2-oxazolyl)-3-(methylamino)-3-oxo-propyl]phenoxy]acetate] was tested. Which IC50 did it give?
The IC50 was 3.5 µg/mL (≈ 7.44 µM).

How did the IC50 turn out when `COC(=O)COc1cccc(CC(C(=O)N(C)C)c2nc(-c3ccccc3)c(-c3ccccc3)o2)c1` (stereo not shown) [Compound 9j] was run?
Its IC50 is 16 µg/mL (≈ 33 µM).

For `CCOC(=O)C(Cc1cccc(OCC(=O)O)c1)c1nc(-c2ccccc2)c(-c2ccccc2)o1` (stereo not drawn) [Compound 10a, Ethyl α-[[3-hydroxy-2-oxoethoxyl]phenyl]methyl]-4,5-diphenyl-2-oxazole ace tate], which IC50 is on record?
The IC50 was 0.06 µg/mL (≈ 0.127 µM).

With `O=C(O)COc1cccc(CC(C(=O)O)c2nc(-c3ccccc3)c(-c3ccccc3)o2)c1` (stereo not drawn) [Compound 10b, α-[[3-(2-Hydroxy-2-oxoethoxy)phenyl]methyl]-4,5-diphenyl-2-oxazoleacetic acid, disodium salt] as the compound, how does the IC50 read?
Its IC50 is 7 µg/mL.

For `COC(=O)C(Cc1cccc(OCC(=O)O)c1)c1nc(-c2ccccc2)c(-c2ccccc2)o1` (stereo not drawn) [Compound 10c, Methyl α-[[3-(2-hydroxy-2-oxoethoxy)phenyl]methyl]-4,5-diphenyl-2-oxazole acetate], which IC50 is on record?
The IC50 was 0.037 µg/mL.

How did the IC50 turn out when `CC(C)OC(=O)C(Cc1cccc(OCC(=O)O)c1)c1nc(-c2ccccc2)c(-c2ccccc2)o1` (stereo not shown) [Compound 10d] was run?
The IC50 was 0.6 µg/mL (≈ 1.24 µM).

For `NC(=O)C(Cc1cccc(OCC(=O)O)c1)c1nc(-c2ccccc2)c(-c2ccccc2)o1` (stereo not shown) [Compound 10e, [3-[3-Amino-2-(4,5-diphenyl-2-oxazolyl)-3-oxopropyl]phenoxy]acetic acid], which IC50 is on record?
The IC50 was 1.7 µg/mL (≈ 3.84 µM).

How did the IC50 turn out when `CNC(=O)C(Cc1cccc(OCC(=O)O)c1)c1nc(-c2ccccc2)c(-c2ccccc2)o1` (stereo not shown) [Compound 10f, [3-[2-(4,5-Diphenyl-2-oxazolyl)-3-(methylamino)-3-oxopropyl]phenoxy]acetic acid] was run?
The IC50 was 0.32 µg/mL (≈ 0.701 µM).

For `CN(C)C(=O)C(Cc1cccc(OCC(=O)O)c1)c1nc(-c2ccccc2)c(-c2ccccc2)o1` (stereo not shown) [Compound 10g, [3-[3-(Dimethylamino)-2-(4,5-diphenyl-2-oxazolyl)-3-oxopropyl]phenoxy]acetic acid], which IC50 is on record?
Its IC50 is 1.7 µg/mL (≈ 3.61 µM).

How did the IC50 turn out when `COC(=O)COc1cccc(/C=C(\C#N)c2nc(-c3ccccc3)c(-c3ccccc3)o2)c1` [Compound 16, (E)-Methyl[3-[2-cyano-2-(4,5-diphenyl-2-oxazolyl)ethenyl]phenoxy]acetate] was run?
Its IC50 is 8 µg/mL (≈ 18.3 µM).

`N#C/C(=C\c1cccc(OCC(=O)O)c1)c1nc(-c2ccccc2)c(-c2ccccc2)o1` [Compound 17, (E)-[3-[2-cyano-2-(4,5-diphenyl-2-oxazolyl)ethenyl]phenoxy]acetic acid] was tested. Which IC50 did it give?
The IC50 was 0.11 µg/mL (≈ 0.26 µM).

Which IC50 does the source give for `COC(=O)COc1cccc(CC(C#N)c2nc(-c3ccccc3)c(-c3ccccc3)o2)c1` (stereo not shown) [Compound 18] here?
The IC50 was 0.36 µg/mL (≈ 0.821 µM).

`N#CC(Cc1cccc(OCC(=O)O)c1)c1nc(-c2ccccc2)c(-c2ccccc2)o1` (stereo not shown) [Compound 19, [3-[2-Cyano-2-(4,5-diphenyl-2-oxazolyl)ethyl]phenoxy]acetic acid] was tested. Which IC50 did it give?
The IC50 was 0.2 µg/mL (≈ 0.471 µM).

From patent US5187188A, “Oxazole carboxylic acid derivatives” (Bristol-Myers Squibb Company, priority 1992, dated 1993)
